Data as given in US6379651B1, “Oral-topical dosage forms for delivering antibacterials/antibiotics to oral cavity to eradicate H. pylori as a concomitant treatment for peptic ulcers and other gastro-intestinal diseases” (priority 1995, dated 2002).

What was measured:
[1] = tested on: H. pylori; conditions: in vivo; cited from earlier work
[2] = in vivo; cited from earlier work
[3] = tested on: Treponema denticola; assay: In vitro MIC, Treponema denticola; type: cell-based
[4] = tested on: Campylobacter rectus; assay: In vitro MIC, Campylobacter rectus; type: cell-based
[5] = Diabetic mouse wound healing model; type: in vivo; conditions: formulations of 10 mcg/ml to 1,000 mcg/ml
Experimental: Further, wound healing potential of the above bismuth compounds is evaluated using a diabetic mouse wound healing model (Matuszewska et al., Pharmaceutical Research 11(1):65-71 (1994), incorporated herein by reference).

[6] = Freeze-injured skin graft model; type: in vivo; conditions: for wound healing rates compared to placebo: Doses of 10 to 1000 mcg/mL; for wound healing in cryoinjured grafts: in vivo
[7] = compared with placebo, cimetidine and ranitidine; cited from earlier work
[8] = tested on: rat mesentery culture; assay: In vitro rat mesentery culture wound closure model; type: cell-based; conditions: for concentrations of growth factors EGF and FGF: 10 mcg/mL to 1,000 mcg/mL in medium, 2% fetal calf serum; for wound closure: 10 mcg/mL to 1,000 mcg/mL, 24-hour, 48-hour and 72-hour, compared to the placebo
Source text: This tissue culture model is useful for gaining insights into growth factor interactions and wound healing.

[9] = in vivo; cited from earlier work; remark: listed apart in the source
[10] = tested on: Helicobacter pylori; assay: In vitro MIC, Helicobacter pylori; type: cell-based
[11] = tested on: H. pylori; conditions: cited from earlier work
[12] = Experimental: Artificial saliva was used (Table 9).
Artificial saliva is used (Table 9).
The test saliva is prepared by dissolving 0.500 g of the antibiotic or antibacterial agent in a 100 mL of the above artificial saliva. […] The denture materials that are exposed to artificial saliva containing the agent or placebo are evaluated.

| Compound | eradication rate for H. pylori [1] [%] | secretion in the saliva [2] | minimum effective concentrations (MICs) [3] [µg/mL] | minimum effective concentrations (MICs) [4] [µg/mL] | wound healing compared to placebo [5] | wound healing rates compared to placebo [6] | wound healing in cryoinjured grafts [6] | relapse rates of duodenal ulcers [7] | concentrations of growth factors EGF and FGF [8] | wound closure [8] | steady-state blood levels unlikely to cause any neurotoxicity [9] | minimum effective concentrations (MICs) [10] [µg/mL] | minimum inhibitory concentration (MIC) against H. pylori [11] [µg/mL] | MIC against H. pylori, range ([11]; range) [µg/mL] | absorption from the GI [2] | staining, discoloration or changes in texture of natural tooth and denture materials [12] |
| --- | --- | --- | --- | --- | --- | --- | --- | --- | --- | --- | --- | --- | --- | --- | --- | --- |
| Cc1ncc([N+](=O)[O-])n1CCO [metronidazole] | 5 | – | – | – | – | – | – | – | – | – | – | – | – | – | – | – |
| CC[C@H]1OC(=O)[C@H](C)[C@@H](O[C@H]2C[C@@](C)(OC)[C@@H](O)[C@H](C)O2)[C@H](C)[C@@H](O[C@@H]2O[C@H](C)C[C@H](N(C)C)[C@H]2O)[C@](C)(OC)C[C@@H](C)C(=O)[C@H](C)[C@@H](O)[C@]1(C)O [Clarithromycin] | – | secreted in the saliva | – | – | – | – | – | – | – | – | – | – | – | – | – | – |
| colloidal bismuth subcitrate [CBS] | – | produces no salivary concentrations | 32 | 256 | heal faster | significant increase | stimulates wound healing in cryoinjured grafts in a dose-related fashion | significantly lower relapse rates | Significantly higher | significantly faster wound closure rate and complete closure | 50-100 | 2 | 8 | 4 to 32 | not absorbed significantly | did not cause any staining, discoloration, or changes in texture |
| L-dihydro ascorbyl-tetrakis (hydrogen sulfate) bismuth complex [Bismuth Ascorbyl Sulfate] | – | – | 16 | 256 | heal faster | significant increase | stimulates wound healing in cryoinjured grafts in a dose-related fashion | – | Significantly higher | significantly faster wound closure rate and complete closure | – | 8 | – | – | – | – |
| beta-D-fructofuranosyl-oktakis (hydrogen sulfate) bismuth complex [Bismuth Sucrose Sulfate] | – | – | 32 | >256 | – | – | – | – | – | – | – | 16 | – | – | – | – |
